In brackets after ≈: the same amount, converted by molar mass. Several values for one entry are separate records, joined by “and”; a condition that tells them apart may be missing. Equal values may be shown once. Read-outs that look alike come from different tables or passages of the source.
What was measured:
[1] = test system: SMN-luciferase transcripts; assay: qRT-PCR of SMN-luciferase transcripts in SMN2-luc cells; format: cell-based, human; conditions: 24 hours, relative to DMSO, normalized to GAPDH, aclarubicin at 300 nM, words
Protocol: Compounds were tested at three concentrations that display maximal activity in the luciferase assay. Cells were treated as described above for the luciferase assay. Cells were harvested by trypsinization, neutralized with trypsin inhibitor, and washed. RNA was isolated from the cells using TRIZOL Reagent (Invitrogen 15596-026). cDNA was generated using the IMPROM-II Reverse Transcription System (Promega A3801).
The forward primer pair recognizes the exon 5-6 junction, which includes a restriction site that was engineered into the reporter and will exclude amplification of endogenous SMN mRNA. The reverse primers recognize either exon 7 or luciferase for detection of full-length or total SMN-luciferase transcripts respectively. For a reference control, cDNA from the housekeeping gene glyceraldehyde-3-phosphate dehydrogenase (GAPDH) was amplified. The primers used include SMN exon5-forward ([…]) (SEQ ID NO: 3), luciferase-reverse ([…]) (SEQ ID NO: 4), exon7-reverse ([…]) (SEQ ID NO: 5), GAPDH-reverse (G3A) ([…]) (SEQ ID NO: 6) and GAPDH-forward (G3S) ([…]) (SEQ ID NO: 7). qPCR was performed as described in the protocol for iQ SYBRGREEN SUPERMIX (Biorad 170-8882) using an EPPENDORF Mastercycler ep realplex^4 Thermo Cycler. Reactions were incubated for a 10 minute, 94° C. hot start followed by 45 cycles of the following: 94° C. for 45 second, 60° C. for 15 seconds, 72° C. for 45 seconds. Melting curves for each reaction were obtained. Each sample was assayed in triplicate and every plate contained a 5-point cDNA dilution course to calculate amplification efficiency for each primer pair. The Pfaffl method was used to determine the change in transcript levels relative to the DMSO and normalized to GAPDH (Pfaffl, M. W., “A new mathematical model for relative quantification in real-time RT-PCR,” Nucleic Acids Res 2001, 29(9), 3e45).
Based on the new reporter design, it was predicted that this screen could detect increased SMN-luciferase protein levels caused by compounds that stimulate SMN2 transcription, exon 7 inclusion, or by increasing the half-life of the SMN mRNA or protein. Quantitative reverse transcriptase PCR (qRT-PCR) was used to analyze SMN-luciferase mRNAs. All assays used RNA from control and compound-treated SMN2-luc cells and primers pairs were chosen to amplify only the SMN-luciferase derived transcripts (FIG. 4A). A pair of primers were used that specifically detects both full-length (exon 7 included) and Δ7 (exon 7 excluded) SMN-luciferase transcripts (primers 1 and 3). To measure changes in exon 7 splicing efficiency, a primer pair was used that detects only the full-length (exon 7 included) SMN-luciferase transcript (primers 1 and 2).
For each sample, the percent increase in the amount of total SMN-luciferase transcripts (gray bar) and exon 7 included full-length SMN-luciferase transcripts (white bar) was plotted (FIG. 4). Compounds that increase transcription should show increased total SMN-luciferase transcripts (gray bar) with a proportional increase for exon 7 included transcripts (white bar), assuming that proper splicing of exon 7 is not rate limiting. Compounds that stimulate exon 7 inclusion should increase the amount of exon 7 included full-length transcript (white bar) detected with little to no change in the expression of total SMN-luciferase transcripts (gray bar). In these experiments, cells were treated with compound, harvested, and each cell pellet was divided for isolation of RNA and to assay luciferase activity. Each qRT-PCR sample was normalized to the housekeeping gene glyceraldehyde-3-phosphate dehydrogenase (GAPDH). The Pfaffl method was used to calculate the change in the amount of total SMN mRNA and determine whether compound treatments increased SMN transcripts.

SMN2-luciferase reporter = SMN2-luciferase reporter assay (clonal HEK-293 SMN2-luc cells); format: cell-based, human; conditions: for Max. fold increase: cell-based reporter response to known SMN2 modulating compounds; for Emax: read-out: Max % Activity; for Active: reporter assay
Protocol: The reporter cell lines were plated at 50,000 cells per well in 96-well plates and incubated overnight. Compounds were added to each well and incubated at 37° C. overnight. The final DMSO concentration was 0.1%. Luciferase activity was assayed using either STEADYGLO (PROMEGA E2510) or DUALGLO (PROMEGA E2920) luciferase using the WALLAC ENVISION multilabel reader. For detailed assay conditions see Table 2A. All data points were transformed from CPS to percent increase over basal expression in the treated control wells (DMSO or H2O as appropriate).
Plates were sealed with porous paper tape and incubated for 24 hours. […] For comparison, data points were transformed from CPS to percent activation over basal expression in the DMSO treated control wells.
For comparison, all data points are expressed as percent increase over basal luciferase expression in the control cells.

SMA mice = assay: SMA mice, intraperitoneal dosing: lifespan, weight, time to right; format: in vivo, mouse; conditions: for lifespan / weight of the treated animals: words; for Time to right: individual pup, raw data
Protocol: The animal studies included new derivatives of LDN-76070 and LDN-75654. Mice were injected intraperitoneally once daily from post-natal day 1-10. […] Compounds LDN-212014, LDN-212016, LDN-212351, and LDN-212391 were injected into a cohort of animals (3-4 each). […] In the Kaplan-Meier curve that DMSO control decreased survival by 50%—the compounds were in […] (FIG. 26A).
LDN-212014 and LDN-76070 were further tested in A7 SMA model mice. Mice were dosed using compounds dissolved in 100% DMSO injected at 20 mg/kg with each dose administered once daily by intraperitoneal injection. As shown in the black curves in the Kaplan-Meier plot, control animals lived 4-5 days longer than the DMSO vehicle treated animals, indicating toxicity. […] In fact, the compounds display a statistically significant increase in survival compared with the untreated animals. These compounds extend the lifespan of SMA mice despite the DMSO toxicity.
In ‘time to right’ experiments, animals are placed on their backs and the duration for animals to right themselves is recorded. Animals that are unable to right in less than 30 seconds are scored as a failure. DMSO treated animals were unable to right themselves, while a small percentage of untreated animals display the ability to right themselves for up to postnatal day (PND) 11. A larger percentage of treated animals can right themselves past PND 17, and in the case of one animal as late as PND 21.

[2] = Liver microsome stability; conditions: for Stabilityin liver microsomes: Table 8; for Stability: Table 9
[3] = Solubility in PBS / aqueous solution; format: physicochemical
[4] = Homo sapiens, HEK293, cell-based reporter, known SMN2 modulating compounds, read-out: EC50
[5] = IP once daily post-natal day 1-10, compounds in 20% DMSO, 3-4 animals each
[6] = IP once daily post-natal day 1-10, compounds in 20% DMSO
[7] = Homo sapiens, HEK293, reporter assay, Table 6, read-out: Ec50
[8] = Homo sapiens, HEK293, reporter assay, Table 6
[9] = aqueous solution, Table 8, grades, read-out: Solubility in aqueous solution

Compound: CC[C@@]1(O)C[C@H](O[C@H]2C[C@H](N(C)C)[C@H](O[C@H]3C[C@H](O)[C@H](O[C@H]4CCC(=O)[C@H](C)O4)[C@H](C)O3)[C@H](C)O2)c2c(cc3c(c2O)C(=O)c2c(O)cccc2C3=O)[C@H]1C(=O)OC [Aclarubicin, aclarubicin, reference compound]
- exon 7 included full-length SMN-luciferase transcripts [1]: lesser increase
- total SMN-luciferase transcripts [1]: potent increase
- EC50 (SMN2-luciferase reporter; Homo sapiens, HEK293): 0.298 µM
- Max. fold increase (SMN2-luciferase reporter): 10 fold

Compound: CC(C(=O)O)c1ccc(N2Cc3ccccc3C2=O)cc1 (stereo not shown) [Indoprofen, indoprofen, reference compound]
- exon 7 included full-length SMN-luciferase transcripts [1]: No consistent change
- total SMN-luciferase transcripts [1]: No consistent change
- EC50 (SMN2-luciferase reporter; [4]): 0.46 µM
- Max. fold increase (SMN2-luciferase reporter): 3 fold

Compound: O=C(Nc1ncc(C2(O)CCC2)s1)c1ccc(F)c(Cl)c1 [LDN-212014]
- lifespan (SMA mice; [5]): extension of lifespan
- weight of the treated animals (SMA mice; [6]): increased
- Time to right (SMA mice; PND 6): Fail (Fail = >30 sec)
- Time to right (SMA mice; PND 6, listed as 212014): dead
- Time to right (SMA mice; PND 7): Fail (Fail = >30 sec)
- Time to right (SMA mice; PND 7, listed as 212014): dead
- Time to right (SMA mice; PND 8): Fail (Fail = >30 sec)
- Time to right (SMA mice; PND 8, listed as 212014): dead
- Time to right (SMA mice; PND 9): Fail (Fail = >30 sec) (2×) and dead and 26 seconds
- Time to right (SMA mice; PND 10): Fail (Fail = >30 sec)
- Time to right (SMA mice; PND 10, listed as 212014): dead
- Time to right (SMA mice; PND 11): 5 seconds and dead and Fail (Fail = >30 sec) (2×)
- Time to right (SMA mice; PND 12): 16 s
- Time to right (SMA mice; PND 12, listed as 212014): dead
- Time to right (SMA mice; PND 13): Fail (Fail = >30 sec)
- Time to right (SMA mice; PND 13, listed as 212014): dead
- Time to right (SMA mice; PND 14): 5 s
- Time to right (SMA mice; PND 14, listed as 212014): dead
- Time to right (SMA mice; PND 15): 14 s
- Time to right (SMA mice; PND 15, listed as 212014): dead
- Time to right (SMA mice; PND 16): Fail (Fail = >30 sec)
- Time to right (SMA mice; PND 16, listed as 212014): dead
- Time to right (SMA mice; PND 17): Fail (Fail = >30 sec)
- Time to right (SMA mice; PND 17, listed as 212014): dead
- Time to right (SMA mice; PND 18): dead
- Time to right (SMA mice; PND 19): dead
- Time to right (SMA mice; PND 20): dead
- lifespan (SMA mice; SMA model mice, 20 mg/kg once daily IP in 100% DMSO, vs DMSO vehicle, p<0.0001): significantly increased lifespan
- T1/2 in liver microsomes ([2]; Table 7): 39 min
- Stabilityin liver microsomes [2]: 39 min
- Stability [2]: 39 min
- half-life ([2]; mouse, liver microsomes, t1/2 in mouse liver microsomes, mouse liver microsomes): 39 min
- EC50 (SMN2-luciferase reporter; [7]): 0.5 µM
- Emax (SMN2-luciferase reporter; [8]): 180%
- Maximum % activation (SMN2-luciferase reporter; Table 7): 156.6 ± 30.7%
- EC50 (SMN2-luciferase reporter; Table 7, read-out: EC50): 0.3 µM
- Active (SMN2-luciferase reporter; Table 6): Yes
- Maximal solubility in PBS ([3]; PBS): >2000 µM

Compound: CC(C)c1cc(C(=O)Nc2nc3ccccc3[nH]2)no1 [LDN-212016]
- lifespan (SMA mice; [5]): extension of lifespan
- weight of the treated animals (SMA mice; [6]): increased
- Time to right (SMA mice; PND 6): Fail (Fail = >30 sec)
- Time to right (SMA mice; PND 7): Fail (Fail = >30 sec) (3×) and 25 seconds
- Time to right (SMA mice; PND 8): Fail (Fail = >30 sec)
- Time to right (SMA mice; PND 9): Fail (Fail = >30 sec)
- Time to right (SMA mice; PND 10): Fail (Fail = >30 sec) (3×) and 12 seconds
- Time to right (SMA mice; PND 11): Fail (Fail = >30 sec) (3×) and 9 seconds
- Time to right (SMA mice; PND 12): Fail (Fail = >30 sec)
- Time to right (SMA mice; PND 13): dead and Fail (Fail = >30 sec) (2×) and 11 seconds
- Time to right (SMA mice; PND 14): dead (2×) and Fail (Fail = >30 sec) (2×)
- Time to right (SMA mice; PND 15): dead (3×) and Fail (Fail = >30 sec)
- Time to right (SMA mice; PND 16): dead (3×) and Fail (Fail = >30 sec)
- Time to right (SMA mice; PND 17): dead (3×) and Fail (Fail = >30 sec)
- Time to right (SMA mice; PND 18): dead
- Time to right (SMA mice; PND 19): dead
- Time to right (SMA mice; PND 20): dead
- Stabilityin liver microsomes [2]: 3 min
- Stability [2]: 3 min
- EC50 (SMN2-luciferase reporter; Homo sapiens, HEK293, Table 7, read-out: EC50): 0.3 µM
- EC50 (SMN2-luciferase reporter; [7]): 0.3 µM
- Emax (SMN2-luciferase reporter; [8]): 250%
- Maximum % activation (SMN2-luciferase reporter; Table 7): 162.4 ± 62.4%
- Active (SMN2-luciferase reporter; Table 6): Yes
- solubility ([3]; PBS, aqueous buffer, read-out: Maximal solubility in PBS): 500 µM (≈ 135 µg/mL)
- solubility [3, 9]: < 500 µM

Compound: O=C(Nc1ncc(C2(O)CCC2)s1)c1nc2ccccc2[nH]1 [LDN-214098]
- Stabilityin liver microsomes [2]: 59 min
- EC50 (SMN2-luciferase reporter; [7]): 0.15 µM
- Emax (SMN2-luciferase reporter; [8]): 200%
- Active (SMN2-luciferase reporter; Table 6): Yes
- solubility [3, 9]: > 2000 µM

Compound: CC(/C=C/C(=O)NO)=C\[C@@H](C)C(=O)c1ccc(N(C)C)cc1 [TSA]
- exon 7 included full-length SMN-luciferase transcripts [1]: increased
- total SMN-luciferase transcripts [1]: increased

Compound: CCCC(CCC)C(=O)O [Valproic Acid, valproic acid]
- exon 7 included full-length SMN-luciferase transcripts [1]: increases
- total SMN-luciferase transcripts [1]: increases
- exon 7 included full-length SMN-luciferase transcripts ([1]; listed as VPA): increased
- total SMN-luciferase transcripts ([1]; listed as VPA): increased
- EC50 (SMN2-luciferase reporter; [4]): 10000 µM
- Max. fold increase (SMN2-luciferase reporter): 2.5 fold
